Test results as given in patent US20140303216A1, “COMPOSITIONS AND METHODS FOR INDUCING DISRUPTION OF BLOOD VASCULATURE AND FOR REDUCING ANGIOGENESIS” (BOARD OF REGENTS, THE UNIVERSITY OF TEXAS SYSTEM, priority 2011, published 2014).

How the values were obtained:
[1] = system: developing Xenopus embryos; assay: Xenopus embryo angiogenesis, in situ hybridization for erg/apinr and kdr:GFP imaging; assay type: in vivo, Xenopus laevis; details: for anti-angiogenic activity of other benzimidazoles: Xenopus in vivo, at dosages at which TBZ reduces angiogenesis (FIG. 14)
Text: (§1) Female adult Xenopus were ovulated by injections of human chorionic gonadotropin, and eggs were fertilized in vitro and dejellied in 3% cysteine (pH 7.9) and subsequently reared in ⅓×Marc's modified Ringer's (MMR) solution. For microinjections, embryos were placed in a solution of 2% Ficoll in ⅓×MMR solution, injected using forceps and an Oxford universal manipulator, reared in 2% Ficoll in ⅓×MMR to stage 9, then washed and reared in ⅓×MMR solution alone. For bilateral rab11b knock-down experiments, the posterior cardinal vein and intersomitic veins were targeted by injecting Morpholino antisense oligonucleotides (MOs) into the two ventral cells equatorially at the four-cell stage. For unilateral knockdown, only one ventral cell was injected. MOs were injected at 40 ng per blastomere. For the experiments to see the drug effects, embryos were placed in a solution of each chemical dissolved in 1% DMSO diluted in ⅓×MMR during indicated stages. For bead micro-surgery implantation, Affi-Gel Blue Gel beads (Bio-Rad) were soaked with 0.7 mg/ml recombinant mouse VEGF 164 aa (R&D systems) or BSA as a control. Whole-mount in situ hybridization for erg and apinr was performed as described^29.
To analyze action of TBZ precisely on inhibition of angiogenesis and disruption of vasculature, we tested TBZ on two different developmental stages. Xenopus late tailbud embryos at stage 31 were selected for testing the inhibitory effect of TBZ on angiogenesis (FIG. 3A-D). This embryonic stage coincides with the onset of intersomitic vein (ISV) angiogenesis, the process of forming smaller blood vessels by sprouting from pre-existing blood vessels. To observe disruption of existing vasculature, we selected stage 35/36 embryos in which the posterior cardinal vein (PCV) and ISV are already developed (FIG. 15).

Xenopus embryos = assay: Xenopus embryo morphology and developmental defects; assay type: in vivo; details: FIG. 14; 250 μM for 2-(Chloromethyl)benzimidazole
Text: as §1, with “1⁄3×Marc's” for “⅓×Marc's”, “1⁄3×MMR” for “⅓×MMR”, “[…] performed as described^29. Immunostaining for Xenopus” for “erg and apinr”, “previously described (Lee et al., 2008). Embryos at stage 35-36 were fixed in 1×MEMFA. 12/101 (1:500; DSHB), and primary antibodies were detected with Alexa Fluor-488 or 555 goat anti-mouse Immunoglobulin (IgG).” for “described^29.”

angiogenesis = details: from the literature; cited from earlier work
lung cancer = details: treatment of lung cancer; cited from earlier work
HUVECs = assay: HUVEC wound scratch cell migration assay; assay type: cell-based, human; details: added to 250 μM TBZ in 1% DMSO; Y27632 preincubated 2 h
Protocol: HUVECs (1.2×10^5 cells) were seeded into 24-well plate for 24 h, and the monolayers were wounded identically. Then, cells were washed with PBS and treated with EBM-2 containing 1% DMSO or 250 μM TBZ dissolved in 1% DMSO with combination of Y27632 or GGPP (Sigma). In the case of Y27632 treatment, cells were preincubated for 2 h before wounding. Cells were photographed at time zero and after 15 h, and the ratios of cell free area [(0 h-15 h)/0 h] were calculated.

In the case of O=C(O)c1cccc2[nH]cnc12 [1H-Benzimidazole-4-carboxylic acid], the “anti-angiogenic activity of other benzimidazoles” value (“anti-angiogenic activity” below) [1] is reported as “not anti-angiogenic”.
For ClCc1nc2ccccc2[nH]1 [2-(Chloromethyl)benzimidazole], the “developmental (birth) defects in Xenopus” value (Xenopus embryos) was “pleiotropic birth defects” and the “anti-angiogenic activity” value [1] was “not anti-angiogenic”.
With Nc1nc2ccc(C(=O)c3ccc(F)cc3)cc2[nH]1 [2-Aminoflubendazole] the “anti-angiogenic activity” value [1] was “not anti-angiogenic”.
In the case of Nc1ccc2[nH]c(C(F)(F)F)nc2c1 [5-Amino-2-(trifluoromethyl)benzimidazole], the “anti-angiogenic activity” value [1] is reported as “not anti-angiogenic”.
With Clc1ccc2nc(C(Cl)(Cl)Cl)[nH]c2c1 [5-Chloro-2-(trichloromethyl)benzimidazole] the “anti-angiogenic activity” value [1] was “not anti-angiogenic”.
For O=c1[nH]cc(F)c(=O)[nH]1 [5-fluorouracil], the “Known effects on angiogenesis” value (angiogenesis) is given as “Inhibitor^†”.
For Cc1ccc2c(=O)c3cccc(CC(=O)O)c3oc2c1C [ASA404], the “efficacy in Phase III clinical trial” value (lung cancer) is listed as “failed to show efficacy”.
With c1ccc2[nH]cnc2c1 [Benzimidazole] the “anti-angiogenic activity” value [1] was “not anti-angiogenic” and the “activity in reducing angiogenesis” value ([1]; doses up to 1 mM) was “inactive”.
In the case of O=S(=O)([O-])[O-].[Cu+2] [CuSO4], the “Known effects on angiogenesis” value (angiogenesis) is given as “Activators^‡”.
With CC(C)=CCC/C(C)=C/CC/C(C)=C/CC/C(C)=C/COP(=O)(O)OP(=O)(O)O [GGPP, geranyl-geranyl pyrophosphate] the “reversal of TBZ-impeded HUVEC migration by added compound” value (HUVECs) was “did not reverse”.
In the case of COc1c(C)c2c(c(O)c1C/C=C(\C)CCC(=O)O)C(=O)OC2 [Mycophenolic acid], the “Known effects on angiogenesis” value (angiogenesis) is listed as “Inhibitor*”.
In the case of [N]=O [Nitric oxide], the “Known effects on angiogenesis” value (angiogenesis) is listed as “Activator^#”.
With C[C@@H](N)[C@H]1CC[C@H](C(=O)Nc2ccncc2)CC1 [Y27632] the “reversal of TBZ-impeded HUVEC migration by added compound” value (HUVECs) was “significant and dose-dependent rescue”.
In the case of CC[C@H](C)C(=O)O[C@H]1C[C@@H](C)C=C2C=C[C@H](C)[C@H](CC[C@@H]3C[C@@H](O)CC(=O)O3)[C@H]21 [lovastatin], the “Known effects on angiogenesis” value (angiogenesis) is listed as “inhibit angiogenesis”.
